According to publication PMC6150172, “Synthesis of Oxadiazole-Thiadiazole Hybrids and Their Anticandidal Activity” (Molecules : A Journal of Synthetic Chemistry and Natural …, 2017):
In brackets after ≈: the same amount, converted by molar mass.

How the values were obtained:
C. krusei (ATCC 6258) = assay: Antifungal broth microdilution assay (EUCAST EDef 7.1), C. krusei; assay type: cell-based; settings: for MIC50: Pichia kudriavzevii, ATCC6258, read-out: Minimum inhibitory concentration (MIC50)
Description: (§1) The anticandidal effect of compounds 6a–6s were screened in accord with the EUCAST definitive (EDef 7.1) method. Ketoconazole was employed as a reference drug. The in vitro growth inhibitory activity of the compounds were tested against C. albicans (ATCC 24433), C. glabrata (ATCC 90030), C. krusei (ATCC 6258) and C. parapsilosis (ATCC 22019). The results were obtained as MIC values and MIC readings were accomplished twice for each chemical agent. After incubating overnight at 37 °C, the fungal strains were sustained in Roswell Park Memorial Institute (RPMI) medium.
(§2) Adjustment of the inoculum density to a 0.5 McFarland turbidity standard was carried out by using a spectrophotometer. The resulting inoculum suspension contained 0.5 × 10^5–2.5 × 10^5 cfu/mL for fungi. The two-fold serial dilutions technique were applied and the test was carried out in Mueller–Hinton broth and RPMI at pH7 and the test was performed for medium at pH7. The last well on the microplates containing only inoculated broth and the last well with no growth of microorganism represent controls and the MIC50 in μg/mL, respectively. DMSO was used as solvent. Further dilutions of the compounds and standard drugs in the RPMI medium were prepared in the required quantities at contcentrations of 800, 400, 200, 100, 50, 25, 12.5, 6.25, 3.125, 1.5625 and 0.78 µg/mL. After a 24 h incubation of the completed plates, resazurin (20 µg/mL) was added into each well in order to observe the fungal growth. […] Each experiment in antifungal assay was performed twice.

C. albicans (ATCC 24433) = assay: Antifungal broth microdilution assay (EUCAST EDef 7.1), C. albicans; assay type: cell-based; settings: for MIC50: Candida albicans, ATCC24433, read-out: Minimum inhibitory concentration (MIC50)
Description: as §1, §2

C. glabrata (ATCC 90030) = assay: Antifungal broth microdilution assay (EUCAST EDef 7.1), C. glabrata; assay type: cell-based; settings: for MIC50: Nakaseomyces glabratus, ATCC90030, read-out: Minimum inhibitory concentration (MIC50)
Description: as §1, §2

[1] = system: C. parapsilosis (ATCC 22019); assay: Antifungal broth microdilution assay (EUCAST EDef 7.1), C. parapsilosis; assay type: cell-based; settings: C. parapsilopsis; for MIC50: Lodderomyces parapsilosis, ATCC22019, read-out: Minimum inhibitory concentration (MIC50)
Description: as §1, §2

MTT cytotoxicity test = assay type: cell-based; settings: mouse, NIH/3T3 mouse embryonic fibroblast cells, NIH/3T3 cell line, read-out: IC50 (cytotoxic activity)
Description: The MTT assay was carried out to determine the cytotoxicity of the synthesized compounds as previously reported in [21]. NIH/3T3 mouse embryonic fibroblast cells (ATCC® CRL-1658™, London, UK) were incubated according to the supplier’s references and seeded at 1 × 10^4 cells into each well of 96-well plates. After this process, cells were treated with the compounds at concentrations ranging from 800 µg/mL to 0.78 µg/mL. By means of the following formula, percent inhibition was evaluated for each concentration.

four Candida species = assay: Antifungal broth microdilution assay, four Candida species taken together; assay type: cell-based; settings: range over four Candida strains
Description: as §1, §2

[2] = system: ergosterol biosynthesis in C. krusei; assay: Ergosterol level quantification by LC-MS-MS in C. krusei; assay type: cell-based; settings: Pichia kudriavzevii, mean ± SD
Description: The ergosterol level was determined using the method described by Breivik and Owades with adjustments according to [2]. C. krusei was inoculated with Sabouraud dextrose broth (Difco) supplemented with compounds 6e, 6k, 6r and the positive control, ketoconazole. The cultures were incubated, and the stationary-phase cells were harvested. After the addition of 25% alcoholic potassium hydroxide solution, cell suspensions were separated and incubated. Sterols were extracted by sterile distilled water and chloroform, and then the extract was injected into the LC-MS-MS system (Shimadzu LCMS 8040, Kyoto, Japan). The ergosterol quantity in the negative control samples was considered as 100%. All concentrations were analysed in quadruplicate, and the results were presented as mean ± standard deviation (SD).

Row | Structure (SMILES) | MIC50 (C. krusei (ATCC 6258)) [µg/mL] | MIC50 (C. albicans (ATCC 24433)) [µg/mL] | MIC50 (C. glabrata (ATCC 90030)) [µg/mL] | MIC50 [1] [µg/mL] | Minimum inhibitory concentration (MIC50) (C. krusei (ATCC 6258)) [µg/mL] | Minimum inhibitory concentration (MIC50) (C. albicans (ATCC 24433)) [µg/mL] | Minimum inhibitory concentration (MIC50) (C. glabrata (ATCC 90030)) [µg/mL] | Minimum inhibitory concentration (MIC50) [1] [µg/mL] | melting point [°C] | IC50 (MTT cytotoxicity test) [µg/mL] | minimum inhibitory concentration (MIC), range over all tested fungi (four Candida species) [µg/mL] | inhibition at 0.78 µg/mL [2] [%] | inhibition at 1.56 µg/mL [2] [%] | inhibition at 3.12 µg/mL [2] [%]
1 | COc1ccc(NC(=O)CSc2nnc(CCSc3nnc(NC4CCCCC4)s3)o2)cc1 [Compound 6i, 2-[[5-[2-[[5-(Cyclohexylamino)-1,3,4-thiadiazol-2-yl]thio]ethyl]-1,3,4-oxadiazol-2-yl]thio]-N-(4-methoxyphenyl)acetamide] | 100 (≈ 197 µM) | 25 (≈ 49.3 µM) | 100 (≈ 197 µM) | 50 (≈ 98.7 µM) |  |  |  |  |  |  |  |  |  | 
2 | O=C(CSc1nnc(CCSc2nnc(NC3CCCCC3)s2)o1)Nc1nc2ccc(F)cc2s1 [Compound 6s, 2-[[5-[2-[[5-(Cyclohexylamino)-1,3,4-thiadiazol-2-yl]thio]ethyl]-1,3,4-oxadiazol-2-yl]thio]-N-(6-fluorobenzothiazol-2-yl)acetamide] | 50 (≈ 90.6 µM) | 50 (≈ 90.6 µM) | 6.25 (≈ 11.3 µM) | 50 (≈ 90.6 µM) |  |  |  |  |  |  |  |  |  | 
3 | O=C(CSc1nnc(CCSc2nnc(NC3CCCCC3)s2)o1)Nc1ccccc1 [Compound 6g, 2-[[5-[2-[[5-(Cyclohexylamino)-1,3,4-thiadiazol-2-yl]thio]ethyl]-1,3,4-oxadiazol-2-yl]thio]-N-phenyl acetamide] |  |  |  |  | 50 (≈ 105 µM) | 50 (≈ 105 µM) | 50 (≈ 105 µM) | 50 (≈ 105 µM) |  |  |  |  |  | 
4 | O=C(CSc1nnc(CCSc2nnc(NC3CCCCC3)s2)o1)c1ccccc1 [Compound 6a, 2-[[5-[2-[[5-(Cyclohexylamino)-1,3,4-thiadiazol-2-yl]thio]ethyl]-1,3,4-oxadiazol-2-yl]thio]-1-phenylethan-1-one] | 50 (≈ 108 µM) | 25 (≈ 54.2 µM) | 50 (≈ 108 µM) | 50 (≈ 108 µM) |  |  |  |  | 141 |  |  |  |  | 
5 | O=C(CSc1nnc(CCSc2nnc(NC3CCCCC3)s2)o1)Nc1ccc([N+](=O)[O-])cc1 [Compound 6k, 2-[[5-[2-[[5-(Cyclohexylamino)-1,3,4-thiadiazol-2-yl]thio]ethyl]-1,3,4-oxadiazol-2-yl]thio]-N-(4-nitrophenyl)acetamide] | 1.56 (≈ 2.99 µM) | 1.56 (≈ 2.99 µM) | 1.56 (≈ 2.99 µM) | 1.56 (≈ 2.99 µM) |  |  |  |  | 149 | > 500 | 0.78 to 3.12 | 58.7 ± 2.41 | 74.7 ± 3.26 | 81.3 ± 4.19
6 | Cc1ccc2nc(NC(=O)CSc3nnc(CCSc4nnc(NC5CCCCC5)s4)o3)sc2c1 [Compound 6n, 2-[[5-[2-[[5-(Cyclohexylamino)-1,3,4-thiadiazol-2-yl]thio]ethyl]-1,3,4-oxadiazol-2-yl]thio]-N-(6-methylbenzothiazol-2-yl)acetamide] | 50 (≈ 91.3 µM) | 100 (≈ 183 µM) | 25 (≈ 45.6 µM) | 25 (≈ 45.6 µM) |  |  |  |  | 209 |  |  |  |  | 
7 | O=C(CSc1nnc(CCSc2nnc(NC3CCCCC3)s2)o1)Nc1nc2ccc([N+](=O)[O-])cc2s1 [Compound 6r, 2-[[5-[2-[[5-(Cyclohexylamino)-1,3,4-thiadiazol-2-yl]thio]ethyl]-1,3,4-oxadiazol-2-yl]thio]-N-(6-nitrobenzothiazol-2-yl)acetamide] | 1.56 (≈ 2.7 µM) | 3.12 (≈ 5.39 µM) | 3.12 (≈ 5.39 µM) | 1.56 (≈ 2.7 µM) |  |  |  |  |  | 406 ± 9.36 (≈ 702 µM) | 0.78 to 3.12 | 61.4 ± 1.88 | 70.6 ± 4.23 | 80.2 ± 3.7
8 | O=C(CSc1nnc(CCSc2nnc(NC3CCCCC3)s2)o1)Nc1nc2ccccc2s1 [Compound 6m, 2-[[5-[2-[[5-(Cyclohexylamino)-1,3,4-thiadiazol-2-yl]thio]ethyl]-1,3,4-oxadiazol-2-yl]thio]-N-(benzothiazol-2-yl)acetamide] | 50 (≈ 93.7 µM) | 50 (≈ 93.7 µM) | 50 (≈ 93.7 µM) | 25 (≈ 46.8 µM) |  |  |  |  | 214 |  |  |  |  | 
9 | COc1ccc(C(=O)CSc2nnc(CCSc3nnc(NC4CCCCC4)s3)o2)cc1 [Compound 6c, 2-[[5-[2-[[5-(Cyclohexylamino)-1,3,4-thiadiazol-2-yl]thio]ethyl]-1,3,4-oxadiazol-2-yl]thio]-1-(4-methoxyphenyl)ethan-1-one] | 100 (≈ 203 µM) | 100 (≈ 203 µM) | 25 (≈ 50.8 µM) | 50 (≈ 102 µM) |  |  |  |  | 120 |  |  |  |  | 
10 | Cc1ccc(NC(=O)CSc2nnc(CCSc3nnc(NC4CCCCC4)s3)o2)cc1 [Compound 6h, 2-[[5-[2-[[5-(Cyclohexylamino)-1,3,4-thiadiazol-2-yl]thio]ethyl]-1,3,4-oxadiazol-2-yl]thio]-N-(4-methylphenyl)acetamide] | 100 (≈ 204 µM) | 25 (≈ 50.9 µM) | 100 (≈ 204 µM) | 50 (≈ 102 µM) |  |  |  |  |  |  |  |  |  | 
11 | O=C(CSc1nnc(CCSc2nnc(NC3CCCCC3)s2)o1)Nc1nc2ccc(Cl)cc2s1 [Compound 6p, 2-[[5-[2-[[5-(Cyclohexylamino)-1,3,4-thiadiazol-2-yl]thio]ethyl]-1,3,4-oxadiazol-2-yl]thio]-N-(6-chlorobenzothiazol-2-yl)acetamide] | 25 (≈ 44 µM) | 50 (≈ 88 µM) | 25 (≈ 44 µM) | 50 (≈ 88 µM) |  |  |  |  | 213 |  |  |  |  | 
12 | COc1ccc2nc(NC(=O)CSc3nnc(CCSc4nnc(NC5CCCCC5)s4)o3)sc2c1 [Compound 6o, 2-[[5-[2-[[5-(Cyclohexylamino)-1,3,4-thiadiazol-2-yl]thio]ethyl]-1,3,4-oxadiazol-2-yl]thio]-N-(6-methoxybenzothiazol-2-yl)acetamide] | 25 (≈ 44.3 µM) | 100 (≈ 177 µM) | 25 (≈ 44.3 µM) | 50 (≈ 88.7 µM) |  |  |  |  |  |  |  |  |  | 
13 | O=C(CSc1nnc(CCSc2nnc(NC3CCCCC3)s2)o1)c1ccc(F)cc1 [Compound 6f, 2-[[5-[2-[[5-(Cyclohexylamino)-1,3,4-thiadiazol-2-yl]thio]ethyl]-1,3,4-oxadiazol-2-yl]thio]-1-(4-fluorophenyl)ethan-1-one] | 25 (≈ 52.1 µM) | 50 (≈ 104 µM) | 50 (≈ 104 µM) | 50 (≈ 104 µM) |  |  |  |  | 131 |  |  |  |  | 
14 | O=C(CSc1nnc(CCSc2nnc(NC3CCCCC3)s2)o1)Nc1ccc(Cl)cc1 [Compound 6j, 2-[[5-[2-[[5-(Cyclohexylamino)-1,3,4-thiadiazol-2-yl]thio]ethyl]-1,3,4-oxadiazol-2-yl]thio]-N-(4-chlorophenyl)acetamide] | 50 (≈ 97.8 µM) | 25 (≈ 48.9 µM) | 50 (≈ 97.8 µM) | 50 (≈ 97.8 µM) |  |  |  |  |  |  |  |  |  | 
15 | O=C(CSc1nnc(CCSc2nnc(NC3CCCCC3)s2)o1)Nc1ccc(F)cc1 [Compound 6l, 2-[[5-[2-[[5-(Cyclohexylamino)-1,3,4-thiadiazol-2-yl]thio]ethyl]-1,3,4-oxadiazol-2-yl]thio]-N-(4-fluorophenyl)acetamide] | 50 (≈ 101 µM) | 100 (≈ 202 µM) | 50 (≈ 101 µM) | 25 (≈ 50.5 µM) |  |  |  |  |  |  |  |  |  | 
16 | O=C(CSc1nnc(CCSc2nnc(NC3CCCCC3)s2)o1)c1ccc(Cl)cc1 [Compound 6d, 2-[[5-[2-[[5-(Cyclohexylamino)-1,3,4-thiadiazol-2-yl]thio]ethyl]-1,3,4-oxadiazol-2-yl]thio]-1-(4-chlorophenyl)ethan-1-one] | 50 (≈ 101 µM) | 100 (≈ 202 µM) | 25 (≈ 50.4 µM) | 50 (≈ 101 µM) |  |  |  |  | 167 |  |  |  |  | 
17 | CC(=O)N1CCN(c2ccc(OCC3COC(Cn4ccnc4)(c4ccc(Cl)cc4Cl)O3)cc2)CC1 (stereo not shown) [Ketoconazole, reference compound] | 1.56 (≈ 2.94 µM) | 0.78 (≈ 1.47 µM) | 1.56 (≈ 2.94 µM) | 1.56 (≈ 2.94 µM) |  |  |  |  |  |  |  | 61 ± 2.94 | 73.1 ± 4.16 | 84.6 ± 3.01
18 | Cc1ccc(C(=O)CSc2nnc(CCSc3nnc(NC4CCCCC4)s3)o2)cc1 [Compound 6b, 2-[[5-[2-[[5-(Cyclohexylamino)-1,3,4-thiadiazol-2-yl]thio]ethyl]-1,3,4-oxadiazol-2-yl]thio]-1-(4-methylphenyl)ethan-1-one] | 100 (≈ 210 µM) | 50 (≈ 105 µM) | 50 (≈ 105 µM) | 50 (≈ 105 µM) |  |  |  |  | 136 |  |  |  |  | 
